From ChEMBL document CHEMBL4308906, “Design and synthesis of selective CYP1B1 inhibitor via dearomatization of α-naphthoflavone” (Bioorg Med Chem, 2019)
Converted amounts (≈) assume the structure as drawn.

Assays:
Cytochrome P450 1A1 = biological target: T1, Cytochrome P450 1A1 (Homo sapiens, UniProt P04798); test: Inhibition of human recombinant CYP1A1 using 7-ethoxyresorufin as substrate after 15 mins in presence of NADPH by EROD assay; format: ADME
T1 sequence (P04798 whole entry): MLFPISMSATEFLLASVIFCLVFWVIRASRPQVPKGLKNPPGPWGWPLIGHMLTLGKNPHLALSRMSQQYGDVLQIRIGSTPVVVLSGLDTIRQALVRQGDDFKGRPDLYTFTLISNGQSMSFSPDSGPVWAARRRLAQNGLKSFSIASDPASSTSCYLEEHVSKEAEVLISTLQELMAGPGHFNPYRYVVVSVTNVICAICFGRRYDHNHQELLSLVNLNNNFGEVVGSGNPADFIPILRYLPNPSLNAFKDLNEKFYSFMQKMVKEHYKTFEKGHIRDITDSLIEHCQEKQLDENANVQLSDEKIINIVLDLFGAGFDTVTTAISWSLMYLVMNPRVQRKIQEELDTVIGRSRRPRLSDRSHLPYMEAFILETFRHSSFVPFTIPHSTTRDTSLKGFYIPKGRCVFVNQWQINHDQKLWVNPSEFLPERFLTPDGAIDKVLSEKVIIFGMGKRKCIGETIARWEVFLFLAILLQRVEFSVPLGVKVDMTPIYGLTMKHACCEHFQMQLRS

Cytochrome P450 1B1 [1] = biological target: T2, Cytochrome P450 1B1 (Homo sapiens, UniProt Q16678); test: Inhibition of human recombinant CYP1B1 using 7-ethoxyresorufin as substrate assessed as percent enzyme activity at 1 uM after 30 mins in presence of NADPH by EROD assay relative to control; set-up: scale not given: the % may be the effect or the level left; conditions: read-out: Activity
T2 sequence (Q16678 whole entry): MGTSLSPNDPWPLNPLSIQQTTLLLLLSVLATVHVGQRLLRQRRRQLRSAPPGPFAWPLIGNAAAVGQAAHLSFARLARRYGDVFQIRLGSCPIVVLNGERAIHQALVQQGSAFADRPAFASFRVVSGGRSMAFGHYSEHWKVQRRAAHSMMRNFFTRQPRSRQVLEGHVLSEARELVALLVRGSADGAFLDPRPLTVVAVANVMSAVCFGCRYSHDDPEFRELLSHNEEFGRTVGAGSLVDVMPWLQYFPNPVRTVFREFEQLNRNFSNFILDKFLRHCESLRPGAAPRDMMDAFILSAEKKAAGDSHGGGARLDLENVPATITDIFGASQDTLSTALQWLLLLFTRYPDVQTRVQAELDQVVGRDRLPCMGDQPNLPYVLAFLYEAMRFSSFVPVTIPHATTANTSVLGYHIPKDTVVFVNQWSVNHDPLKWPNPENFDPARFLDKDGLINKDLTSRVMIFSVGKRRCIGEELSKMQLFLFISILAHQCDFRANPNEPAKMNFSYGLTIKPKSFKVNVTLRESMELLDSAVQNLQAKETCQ

Cytochrome P450 1B1 [2] = biological target: T2, Cytochrome P450 1B1; test: Inhibition of human recombinant CYP1B1 using 7-ethoxyresorufin as substrate after 30 mins in presence of NADPH by EROD assay
CYP1A1 = biological target: T3, CYP1A1 (Homo sapiens, UniProt P04798); test: Inhibition of human recombinant CYP1A1 using 7-ethoxyresorufin as substrate assessed as percent enzyme activity at 1 uM after 15 mins in presence of NADPH by EROD assay relative to control; format: ADME; set-up: scale not given: the % may be the effect or the level left; conditions: recombinant CYP1A1, probe 7-ethoxyresorufin, read-out: Activity
T3 sequence (P04798 whole entry): T1 sequence (P04798 whole entry)

Cytochrome P450 1A2 = biological target: T4, Cytochrome P450 1A2 (Homo sapiens, UniProt P05177); test: Inhibition of human recombinant CYP1A2 using 7-ethoxyresorufin as substrate after 30 mins in presence of NADPH by EROD assay; format: ADME
T4 sequence (P05177 whole entry): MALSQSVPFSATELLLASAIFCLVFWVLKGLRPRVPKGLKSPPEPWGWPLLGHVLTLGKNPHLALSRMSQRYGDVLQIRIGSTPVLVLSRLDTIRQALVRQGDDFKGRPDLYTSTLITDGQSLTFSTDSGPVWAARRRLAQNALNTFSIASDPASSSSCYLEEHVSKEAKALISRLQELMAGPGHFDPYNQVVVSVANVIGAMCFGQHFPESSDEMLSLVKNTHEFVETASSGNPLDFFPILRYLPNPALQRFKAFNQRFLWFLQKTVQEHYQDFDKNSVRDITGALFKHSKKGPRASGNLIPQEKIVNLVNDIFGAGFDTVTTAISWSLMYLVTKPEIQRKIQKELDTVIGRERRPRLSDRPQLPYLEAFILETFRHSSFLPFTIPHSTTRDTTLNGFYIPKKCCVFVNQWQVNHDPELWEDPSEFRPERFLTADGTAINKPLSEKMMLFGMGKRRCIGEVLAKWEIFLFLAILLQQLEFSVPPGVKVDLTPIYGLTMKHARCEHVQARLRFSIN

Cytochrome P450 1B1 [3] = biological target: T2, Cytochrome P450 1B1; test: Binding affinity to human C-terminal 4His-tagged CYP1B1 expressed in Escherichia coli DH5alpha assessed as spectral dissociation constant by spectrophotometric analysis; conditions: read-out: Ks
Homo sapiens [4] = organism: Homo sapiens; test: Selectivity ratio of IC50 for human recombinant CYP1A1 to IC50 for human recombinant CYP1B1
CYP1A2 = biological target: T5, CYP1A2 (Homo sapiens, UniProt P05177); test: Inhibition of human recombinant CYP1A2 using 7-ethoxyresorufin as substrate assessed as percent enzyme activity at 1 uM after 30 mins in presence of NADPH by EROD assay relative to control; format: ADME; set-up: scale not given: the % may be the effect or the level left; conditions: recombinant CYP1A2, probe 7-ethoxyresorufin, read-out: Activity
T5 sequence (P05177 whole entry): T4 sequence (P05177 whole entry)

Homo sapiens [5] = organism: Homo sapiens; test: Selectivity ratio of IC50 for human recombinant CYP1A2 to IC50 for human recombinant CYP1B1
[6] = Aqueous solubility of compound in 9:1 PBS/ethanol buffer by shake flask method; format: physicochemical
[7] = Solubility of compound in pH 7.4 PBS by shake flask met; format: physicochemical; conditions: buffer

| IC50 (Cytochrome P450 1A1) | activity at 0.5 h, 1 µM (Cytochrome P450 1B1 [1]) | IC50 (Cytochrome P450 1B1 [2]) | activity at 0.25 h, 1 µM (CYP1A1) | IC50 (Cytochrome P450 1A2) | Kd (Cytochrome P450 1B1 [3]) | Ratio IC50 (Homo sapiens [4]) | activity at 0.5 h, 1 µM (CYP1A2) | Ratio IC50 (Homo sapiens [5]) | solubility thermodynamic [6] | solubility [7] | SMILES |
| --- | --- | --- | --- | --- | --- | --- | --- | --- | --- | --- | --- |
| 15.9 nM | -4.7% | 29.4 nM | 1.1% | 991 nM | 6700 nM | 0.54 | 45.4% | 33.7 | – | – | CC(=O)S[C@H]1CC[C@H](c2cc(=O)c3ccc4ccccc4c3o2)CC1 |
| 33 nM | 3.1% | 68.1 nM | 5.5% | – | 25400 nM | 0.48 | 4.3% | – | – | – | C=C=C[C@H]1CC[C@@H](c2cc(=O)c3ccc4ccccc4c3o2)CC1 |
| 146 nM | 1.8% | 40.3 nM | 1.3% | 689 nM | 8900 nM | 3.6 | 0.6% | 17.1 | – | – | O=c1cc([C@H]2CC[C@H](S)CC2)oc2c1ccc1ccccc12 |
| 65 nM | -1.3% | 24.3 nM | 3.8% | – | 4000 nM | 2.7 | 42.7% | – | – | – | CC(=O)S[C@H]1CC[C@@H](c2cc(=O)c3ccc4ccccc4c3o2)CC1 |
| – | 25.4% | 540 nM | 51.5% | – | 5900 nM | – | 51.8% | – | 9.65 µM (≈ 2.69 µg/mL) | – | O=c1cc(C2CCCCC2)oc2c1ccc1ccccc12 |
| 53.8 nM | -11.3% | – | 0.4% | – | – | – | -10.1% | – | 2.63 µM (≈ 0.716 µg/mL) | Insoluble | O=c1cc(-c2ccccc2)oc2c1ccc1ccccc12 [ALPHA-NAPHTHOFLAVONE] |
| 43 nM | 3.7% | 43.4 nM | 6.3% | 909 nM | – | 0.99 | 10.4% | 21 | – | – | O=c1cc(-c2ccc(O)cc2)oc2c1ccc1ccccc12 |
| 9.5 nM | -0.5% | 2.6 nM | 2.3% | 93.8 nM | 900 nM | 3.6 | -13.6% | 35.6 | < 1 µM | – | [N-]=[N+]=Nc1ccc(-c2cc(=O)c3ccc4ccccc4c3o2)cc1 |
| 216 nM | 2.2% | 23.5 nM | 6.3% | 433 nM | 3900 nM | 9.2 | 22.3% | 18.5 | – | – | [N-]=[N+]=NCC1CCC(c2cc(=O)c3ccc4ccccc4c3o2)CC1 (mixture of isomers) |
| 1040 nM | -1.8% | 135 nM | 39.5% | 1190 nM | 5400 nM | 7.7 | 46.5% | 8.8 | – | – | [N-]=[N+]=N[C@H]1CC[C@H](c2cc(=O)c3ccc4ccccc4c3o2)CC1 |
| 13.6 nM | -0.4% | 13.4 nM | 3% | 36.4 nM | 2400 nM | 1.02 | -4.5% | 2.7 | – | – | C=C=C[C@H]1CC[C@H](c2cc(=O)c3ccc4ccccc4c3o2)CC1 |
| 525 nM | -15.3% | 4.4 nM | 39.6% | 667 nM | 2600 nM | 120 | 29.6% | 153 | 2.67 µM (≈ 0.853 µg/mL) | – | [N-]=[N+]=N[C@H]1CC[C@@H](c2cc(=O)c3ccc4ccccc4c3o2)CC1 |
| 27.1 nM | 0.7% | 1.8 nM | 1.4% | 74.7 nM | 800 nM | 15.5 | 6.9% | 42.8 | – | – | [N-]=[N+]=Nc1cccc(-c2cc(=O)c3ccc4ccccc4c3o2)c1 |
